For one compound, IC50 results are on record in paper doi:10.1101/2024.06.25.600616, “Presynaptic GABAA receptors control integration of nicotinic input onto dopaminergic axons in the striatum” (bioRxiv, 2024).

SMILES strings stand for the structures.

The assay relates to T1, nicotinic acetylcholine receptors (nAChRs) on dopaminergic axons (likely beta2 subunit-containing).
T1 construct: gene Chrnb2; native receptor on dopaminergic axons; with α4 and/or α6 nAChR subunits (native heteromer, not resolved)
Kind of assay: whole-cell axonal recording of ACh-puff depolarizations; IC50 from jGCaMP8s nicotinic component in striatal slices. Details: species or system Mus musculus.

As to `C=C(C)[C@@H]1[C@H]2OC(=O)[C@@H]1[C@]1(O)C[C@H]3OC34C(=O)O[C@H]2[C@@]41C.CC(C)(O)[C@@H]1[C@H]2OC(=O)[C@@H]1[C@]1(O)C[C@H]3OC34C(=O)O[C@H]2[C@@]41C` (stereo partly shown) [picrotoxin], the IC50 amounted to 108 µM.

Usually IC50 stands for the concentration that inhibits the measured activity by half. Read a high IC50 as weaker potency.
